The text below walks through data of US7902361B2, “Pyrimidin-4-yl-3, 4-thione compounds and their use in therapy” (Cyclacel Limited, priority 2003, dated 2011).

SMILES strings stand for the structures. Read-outs that look alike come from different tables or passages of the source.

The Ki is a dissociation constant, usually derived from enzyme kinetics or from competition with a known ligand.

The subject of one test is PEPCK gene expression. Description: PEPCK gene expression assay - qPCR in HEPG2 cells. Format: cell-based. The following applies: Homo sapiens, HepG2, HEPG2, read-out: PEPCK gene expression, % of maximum stimulation. As to the method: PEPCK gene expression was studied in HEPG2 (hepatocarcinoma) cells, seeded in 6-well plate at […] per well. The cells were serum-starved for 20 hours before treatment with dexamethasone/cAMP (stimulator of PEPCK gene expression) in the presence or absence of insulin or GSK3 inhibitor example compounds. After 3 hours treatment the cells were harvested, lysed and RNA extracted using mini RNeasy spin columns (Quiagen). The primer set COD2063/COD2064 (350 bp) was used for the PEPCK gene. The one step RT-PCR was carried out using the Lightcycler-RNA Master SYBR Green 1 Kit. The qPCR analysis calculates the number of the PCR cycles required for the PCR product amplification to reach logarithmic phase. QPCR for a housekeeping gene—28S—was used for normalisation. PEPCK is a key enzyme in gluconeogenesis in the liver and it is known to be negatively regulated by insulin via inhibition of GSK3. The effect of example compounds on PEPCK gene expression was studied in HEPG2 cells treated with dexamethasone/cAMP (a positive regulator PEPCK gene expression) in the presence or absence of insulin or GSK3 inhibitors. Example compound inhibitors of GSK3 were efficient in the abolishment of dexamethasone/cAMP induced stimulation of PEPCK gene expression in HEPG2 cells.

The target of another test is CDK1/cyclin B (Homo sapiens, UniProt P06493). As to the kind of experiment: Kinase assay CDK1/cyclin B (radioactive phosphate incorporation). Format: biochemical. The following applies: Ki calculated (Cheng-Prusoff) from experimentally determined IC50 and Km,ATP; read-out: Kinase Inhibition Ki CDK1 - cyclin B. The method, boiled down: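 Radiometric assays measured transfer of radioactive phosphate from ATP onto polypeptide substrates, using 2-4 μg recombinant active enzyme in buffer typically containing 25 mM β-glycerophosphate, 20 mM MOPS, 5 mM EGTA, 1 mM DTT and 1 mM Na3VO3 at pH 7.4. Reactions were stopped on ice, filtered on P81 or GF/C plates and washed with orthophosphoric acid. Incorporated radioactivity was scintillation-counted.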
Chain of CDK1/cyclin B (P06493 whole entry, species assumed): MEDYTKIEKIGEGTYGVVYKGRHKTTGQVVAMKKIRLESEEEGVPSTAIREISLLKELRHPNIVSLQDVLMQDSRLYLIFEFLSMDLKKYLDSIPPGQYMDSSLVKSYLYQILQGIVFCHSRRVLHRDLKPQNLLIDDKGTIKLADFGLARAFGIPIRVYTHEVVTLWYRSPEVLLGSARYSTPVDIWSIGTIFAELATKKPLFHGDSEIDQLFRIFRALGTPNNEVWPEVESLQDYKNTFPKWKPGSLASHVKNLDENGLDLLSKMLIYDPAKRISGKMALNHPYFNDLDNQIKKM
Chain of CDK1/cyclin B (P14635 whole entry partner, species assumed): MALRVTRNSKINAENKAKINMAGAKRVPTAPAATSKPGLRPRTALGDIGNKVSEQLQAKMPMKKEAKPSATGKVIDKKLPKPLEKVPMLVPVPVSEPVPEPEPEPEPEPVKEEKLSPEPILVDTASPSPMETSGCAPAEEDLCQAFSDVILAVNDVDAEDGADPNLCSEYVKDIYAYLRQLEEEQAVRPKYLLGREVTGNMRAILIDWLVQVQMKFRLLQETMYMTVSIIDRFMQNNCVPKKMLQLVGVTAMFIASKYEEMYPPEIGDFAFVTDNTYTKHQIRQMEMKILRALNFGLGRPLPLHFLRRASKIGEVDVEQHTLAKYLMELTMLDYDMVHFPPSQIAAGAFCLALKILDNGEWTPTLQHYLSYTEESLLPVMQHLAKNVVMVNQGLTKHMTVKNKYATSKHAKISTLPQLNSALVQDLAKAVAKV

As to `CC(=O)Nc1cc(Nc2nccc(-c3sc(=O)n(C)c3C)n2)cc(C(F)(F)F)c1` [Compound 64, N-{3-[4-(3,4-Dimethyl-2-oxo-2,3-dihydro-thiazol-5-yl)-pyrimidin-2-ylamino]-5-trifluoromethyl-phenyl}-acetamide], the Emax with PEPCK gene expression (0.1 μM + Dex/cAMP) came to 11.4 ± 3.2%. On CDK1/cyclin B, the Ki is 870 nM.
Consider `CCNS(=O)(=O)c1cccc(Nc2nccc(-c3sc(=O)n(C)c3C)n2)c1` [Compound 62, 3-[4-(3,4-Dimethyl-2-oxo-2,3-dihydro-thiazol-5-yl)-pyrimidin-2-ylamino]-N-ethyl-benzenesulfonamide], for which the Ki at CDK1/cyclin B is 430 nM.
Consider `Cc1c(-c2ccnc(Nc3cccc(S(=O)(=O)NCCO)c3)n2)sc(=O)n1C` [Compound 75, 3-[4-(3,4-Dimethyl-2-oxo-2,3-dihydro-thiazol-5-yl)-pyrimidin-2-ylamino]-N-(2-hydroxy-ethyl)-benzenesulfonamide], for which the results for the Emax in the test with PEPCK gene expression (1 μM + Dex/cAMP) and in the test with PEPCK gene expression (10 μM + Dex/cAMP) were 37.2 ± 0.37% and 17.1 ± 0.68%, respectively. Besides, on CDK1/cyclin B, the Ki is 620 nM.
Take `COCCNS(=O)(=O)c1cccc(Nc2nccc(-c3sc(=O)n(C)c3C)n2)c1` [Compound 67, 3-[4-(3,4-Dimethyl-2-oxo-2,3-dihydro-thiazol-5-yl)-pyrimidin-2-ylamino]-N-(2-methoxy-ethyl)-benzenesulfonamide]: the Emax with PEPCK gene expression (1 μM + Dex/cAMP) was determined as 101 ± 38.2%; with PEPCK gene expression (10 μM + Dex/cAMP), 17.4 ± 0.97%.
In the case of `Cc1c(-c2ccnc(Nc3cc(Br)cc(C(F)(F)F)c3)n2)sc(=O)n1C` [Compound 68, 5-[2-(3-Bromo-5-trifluoromethyl-phenylamino)-pyrimidin-4-yl]-3,4-dimethyl-3H-thiazol-2-one], the Emax in the test with PEPCK gene expression (10 μM + Dex/cAMP) is 60.7 ± 20%.
